The test system of the experiment is BDF1 mice, P388 leukemia ip, median survival T/C. Put plainly: NCI In Vivo Anticancer Drug Screen. Data for tumor model P388 Leukemia (intraperitoneal) in B6D2F1 (BDF1) mice. The settings on record: endpoint: median survival time, higher = longer survival. In a few lines:
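T/C = treated-group survival ÷ vehicle-control survival; tumour transplanted into mice before dosing.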

The mark [1] stands for this setting: dose: 25.0 mg/kg/injection, schedule: Q01DX009 (ip), vehicle: saline with Tween-80.
Setting [2] is: dose: 50.0 mg/kg/injection, schedule: Q01DX009 (ip), vehicle: saline with Tween-80.
[3] abbreviates: dose: 100.0 mg/kg/injection, schedule: Q01DX009 (ip), vehicle: saline with Tween-80.
Where [4] appears, read: dose: 200.0 mg/kg/injection, schedule: Q01DX009 (ip), vehicle: saline with Tween-80.
[5] abbreviates: dose: 400.0 mg/kg/injection, schedule: Q01DX009 (ip), vehicle: saline with Tween-80.
[6] abbreviates: dose: 25.0 mg/kg/injection, schedule: Q04DX003 (ip), vehicle: saline with Tween-80.
Where [7] appears, read: dose: 50.0 mg/kg/injection, schedule: Q04DX003 (ip), vehicle: saline with Tween-80.
The mark [8] stands for this setting: dose: 100.0 mg/kg/injection, schedule: Q01DX009 (ip), vehicle: Klucel (hydroxypropylcellulose) (HPC).
Where [9] appears, read: dose: 200.0 mg/kg/injection, schedule: Q01DX009 (ip), vehicle: Klucel (hydroxypropylcellulose) (HPC).
Setting [10] is: dose: 400.0 mg/kg/injection, schedule: Q01DX009 (ip), vehicle: Klucel (hydroxypropylcellulose) (HPC).
Setting [11] is: dose: 100.0 mg/kg/injection, schedule: Q04DX003 (ip), vehicle: saline sonified.
Where [12] appears, read: dose: 100.0 mg/kg/injection, schedule: Q04DX003 (ip), vehicle: saline with Tween-80.

SMILES strings stand for the structures. “And” between values parts separate entries of the source, which are not always exact repeats. Equal entries are not always repeated. Toxic doses and inconclusive results are not listed.

In the case of `CN1CC=Nc2c1nc(N)[nH]c2=O`, the T/C by setting is: (dose: 12.5 mg/kg/injection, schedule: Q01DX009 (ip), vehicle: saline with Tween-80) 109 % of control; under setting [1], 107 % of control; under setting [2], 102 % of control.

For `Oc1ccc2ccccc2c1N=Nc1ccc(F)cc1`, the T/C under setting [3] is 100 % of control, the T/C under setting [4] is 90 % of control and the T/C under setting [5] was 95 % of control.

For `CCCCCCCCCCCCNC`, the T/C is 104 % of control (dose: 12.5 mg/kg/injection, schedule: Q04DX003 (ip), vehicle: saline with Tween-80); 109 % of control under setting [6]; 100 % of control under setting [7].

Consider `COCC12CCC(OC)C34C5CC6(O)C(OC)CC(OC(C)=O)(C5C6OC(=O)c5ccccc5)C(C(OC)C13)C4N(C)C2` (centres undefined), for which the T/C is 93 % of control (dose: 0.13 mg/kg/injection, schedule: Q01DX009 (ip), vehicle: Klucel (hydroxypropylcellulose) (HPC)); 88 % of control (dose: 0.25 mg/kg/injection, schedule: Q01DX009 (ip), vehicle: Klucel (hydroxypropylcellulose) (HPC)); 102 % of control (dose: 0.5 mg/kg/injection, schedule: Q01DX009 (ip), vehicle: Klucel (hydroxypropylcellulose) (HPC)); 102 % of control (dose: 1.0 mg/kg/injection, schedule: Q01DX009 (ip), vehicle: Klucel (hydroxypropylcellulose) (HPC)).

As for `CCOc1ccc2nc(/C=C\c3cc4c5c(c3)CCCN5CCC4)ccc2c1`, the T/C was 90 % of control under setting [8]; 100 % of control (dose: 100.0 mg/kg/injection, schedule: Q04DX003 (ip), vehicle: Klucel (hydroxypropylcellulose) (HPC)); 109 % of control under setting [9]; 100 % of control (dose: 200.0 mg/kg/injection, schedule: Q04DX003 (ip), vehicle: Klucel (hydroxypropylcellulose) (HPC)); 104 % of control under setting [10]; 95 % of control (dose: 400.0 mg/kg/injection, schedule: Q04DX003 (ip), vehicle: Klucel (hydroxypropylcellulose) (HPC)).

For `CCCC(=O)OCc1ccc(Cl)c(Cl)c1`, the T/C by setting is: under setting [1], 100 % of control; under setting [2], 108 % of control; under setting [3], 112 % of control.

For `C=CCn1c(=S)[nH]c2ccccc2c1=O`, the T/C under setting [3] is 100 % of control, the T/C under setting [4] was 95 % of control and the T/C under setting [5] was 100 % of control.

As for `COc1cc2c(cc1I)-c1c(cc(OC)c(OC)c1OC)CC[C@@H]2NC(C)=O`, the T/C under setting [11] was 100 % of control; the T/C (dose: 200.0 mg/kg/injection, schedule: Q04DX003 (ip), vehicle: saline sonified) is 108 % of control; the T/C (dose: 400.0 mg/kg/injection, schedule: Q04DX003 (ip), vehicle: saline sonified) was 100 % of control.

Regarding `C[Se]c1ncnc2c(C3OC(CO)C(O)C3O)[nH]nc12` (centres undefined), the T/C is, setting by setting: (dose: 0.5 mg/kg/injection, schedule: Q01DX009 (ip), vehicle: saline with Tween-80) 118 % of control; (dose: 1.0 mg/kg/injection, schedule: Q01DX009 (ip), vehicle: saline with Tween-80) 90 % of control; (dose: 2.0 mg/kg/injection, schedule: Q01DX009 (ip), vehicle: saline with Tween-80) 109 % of control; (dose: 4.0 mg/kg/injection, schedule: Q01DX009 (ip), vehicle: saline with Tween-80) 100 % of control; (dose: 6.25 mg/kg/injection, schedule: Q01DX009 (ip), vehicle: saline) 114 % of control; (dose: 8.0 mg/kg/injection, schedule: Q01DX009 (ip), vehicle: saline with Tween-80) 90 % of control. The T/C runs as follows: (dose: 12.5 mg/kg/injection, schedule: Q01DX009 (ip), vehicle: saline) 98 % of control; (dose: 12.5 mg/kg/injection, schedule: Q04DX003 (ip), vehicle: saline) 98 % of control; (dose: 25.0 mg/kg/injection, schedule: Q04DX003 (ip), vehicle: saline) 92 % of control.

Consider `CC1CCC(C)N1P(=O)(N1CC1)N1CC1` (centres undefined), for which the T/C is, setting by setting: (dose: 16.5 mg/kg/injection, schedule: Q04DX003 (ip), vehicle: saline with Tween-80) 168 % of control and 183 % of control; under setting [6], 120 % of control and 218 % of control.

On to `O=C1NC2(CCCCCC2)C(=O)N1CN1CCOCC1`, for which the T/C was 90 % of control (dose: 25.0 mg/kg/injection, schedule: Q04DX003 (ip), vehicle: saline sonified); 95 % of control (dose: 50.0 mg/kg/injection, schedule: Q04DX003 (ip), vehicle: saline sonified); 104 % of control under setting [11].

For the compound `[Cl][Pt+2]([Cl])([Cl])[Cl].[Na+].[S-]c1ncnc2nc[nH]c12.[S-]c1ncnc2nc[nH]c12`, the T/C is, setting by setting: under setting [3], 120 % of control; under setting [12], 100 % of control; (dose: 200.0 mg/kg/injection, schedule: Q04DX003 (ip), vehicle: saline with Tween-80) 100 % of control; (dose: 300.0 mg/kg/injection, schedule: Q01DX009 (ip), vehicle: saline with Tween-80) 113 % of control; under setting [5], 112 % of control; (dose: 400.0 mg/kg/injection, schedule: Q04DX003 (ip), vehicle: saline with Tween-80) 122 % of control.

For the compound `CCCCc1ccc(Sc2cccc3c2C(=O)c2c(Sc4ccc(CCCC)cc4)cccc2C3=O)cc1`, the T/C by setting is: under setting [3], 95 % of control; under setting [4], 90 % of control; under setting [5], 95 % of control.

Consider `COc1ccc(-c2cc(C(=O)O)c3cc4ccccc4cc3n2)cc1Br`, for which the T/C is, setting by setting: under setting [3], 100 % of control; under setting [4], 100 % of control; under setting [5], 97 % of control; (dose: 600.0 mg/kg/injection, schedule: Q01DX009 (ip), vehicle: saline with Tween-80) 109 % of control.

Consider `CCC(=O)c1ccc(OCC(O)CN2CCC(O)(c3ccccc3)CC2)cc1` (centres undefined), for which the T/C under setting [1] is 111 % of control; the T/C under setting [6] is 109 % of control; the T/C under setting [2] is 103 % of control; the T/C under setting [7] was 109 % of control; the T/C under setting [3] is 88 % of control; the T/C under setting [12] is 104 % of control.

`CCSc1ncc(C)c(Cl)n1`: the T/C is 107 % of control (dose: 100.0 mg/kg/injection, schedule: Q01DX009 (ip), vehicle: water); 105 % of control (dose: 100.0 mg/kg/injection, schedule: Q04DX003 (ip), vehicle: water); 99 % of control (dose: 200.0 mg/kg/injection, schedule: Q01DX009 (ip), vehicle: water); 107 % of control (dose: 200.0 mg/kg/injection, schedule: Q04DX003 (ip), vehicle: water); 108 % of control (dose: 400.0 mg/kg/injection, schedule: Q01DX009 (ip), vehicle: water); 103 % of control (dose: 400.0 mg/kg/injection, schedule: Q04DX003 (ip), vehicle: water).

With `COC(=O)C(NC(C)=O)C(=O)OC`, the T/C is 104 % of control under setting [8], 92 % of control under setting [9] and 88 % of control under setting [10].

Consider `COc1cc(NC(=O)N(CCCl)N=O)cc(OC)c1OC`, for which the T/C is, setting by setting: (dose: 0.88 mg/kg/injection, schedule: Q04DX003 (ip), vehicle: saline + alcohol) 114 % of control; (dose: 1.6 mg/kg/injection, schedule: Q01DX009 (ip), vehicle: saline + alcohol) 168 % of control; (dose: 2.4 mg/kg/injection, schedule: Q01DX009 (ip), vehicle: saline + alcohol) 161 % of control; (dose: 3.0 mg/kg/injection, schedule: Q04DX003 (ip), vehicle: saline + alcohol) 166 % of control; (dose: 3.7 mg/kg/injection, schedule: Q01DX009 (ip), vehicle: saline + alcohol) 203 % of control; (dose: 5.5 mg/kg/injection, schedule: Q04DX003 (ip), vehicle: saline + alcohol) 168 % of control. Moreover, the T/C (dose: 5.56 mg/kg/injection, schedule: Q01DX009 (ip), vehicle: saline + alcohol) was 201 % of control and 203 % of control; the T/C (dose: 8.3 mg/kg/injection, schedule: Q04DX003 (ip), vehicle: saline + alcohol) was 218 % of control; the T/C (dose: 8.33 mg/kg/injection, schedule: Q01DX009 (ip), vehicle: saline + alcohol) was 220 % of control; the T/C (dose: 12.5 mg/kg/injection, schedule: Q01DX009 (ip), vehicle: saline + alcohol) is 226 % of control; the T/C (dose: 12.5 mg/kg/injection, schedule: Q04DX003 (ip), vehicle: saline + alcohol) is 227 % of control; the T/C (dose: 18.7 mg/kg/injection, schedule: Q01DX009 (ip), vehicle: saline + alcohol) is 111 % of control. The T/C reads like this: (dose: 18.7 mg/kg/injection, schedule: Q04DX003 (ip), vehicle: saline + alcohol) 268 % of control; (dose: 25.0 mg/kg/injection, schedule: Q01DX009 (ip), vehicle: saline + alcohol) 108 % of control.

The values above are taken from PubChem BioAssay AID328 (DTP/NCI, 2004).
